Test results: paper PMC6325233, “A Novel Actin Binding Drug with In Vivo Efficacy” (Antimicrobial Agents and Chemotherapy, 2018)

Tests used:
[1] = Murine model of vulvovaginal candidiasis, tolerability; type: in vivo, BALB/c mice
Description: (§1) The murine model of vulvovaginal candidiasis has been reported ([59]). A variation of this method was used. Three groups of six mice were used to evaluate two concentrations of occidiofungin (100 μg and 50 μg) and vehicle control (0.3% Noble agar). Briefly, 6- to 8-week-old BALB/c mice were treated subcutaneously with 200 ng per mouse of β-estradiol 17-valerate 3 days prior to inoculation with C. albicans (day −3). A subcutaneous dose of estradiol was administered every 3 days (day 0 [D0] and D3) until the end of the experiment to induce pseudoestrus. Intravaginal inoculations of approximately 20 μl of 2.5 × 10^6 CFU/ml of C. albicans were performed on D0 of the VVC study. On the same day of inoculation (D0), another subcutaneous injection of estradiol was made. A lyophilized powder of occidiofungin containing either 100 μg or 50 μg of occidiofungin was suspended in 20 μl of warm 0.3% Noble agar before the intravaginal inoculations. Drug treatments were performed on D2, D3, and D4 of the study. On day 5 (D5), the vaginal lumen was lavaged with 100 μl of sterile PBS with a 200-µl pipette tip. Serial dilutions and total CFU per vaginal lavage were determined by plating on YPD plates containing 50 μg/ml of chloramphenicol. Body weights, signs of vaginal irritation such as swelling or bleeding, and clinical signs of discomfort (stereotypical stretching behavior) were monitored. Statistical analyses (t tests) were performed to compare the control group to the treated groups and to compare differences between treated groups. All the analyses were 2 sided, with a P value of <0.05 considered statistically significant.

[2] = system: Candida parapsilosis 28174; assay: MIC susceptibility testing; type: cell-based; set-up: key to MIC, 50% inhibition: -: indicates absence of isolates with 50% inhibition endpoint; conditions: CLSI M27-A3
Description: (§2) Occidiofungin was purified from a liquid culture of Burkholderia contaminans MS14 as previously described ([21]). MIC susceptibility testing was performed according to the CLSI M27-A3 and M38-A2 standards for the susceptibility testing of yeasts and filamentous fungi, respectively. S. cerevisiae deletion mutants were obtained from the commercially available BY4741 deletion library (Thermo Scientific).

Fusarium oxysporum 27718 = assay: MIC susceptibility testing; type: cell-based; set-up: key to MIC, 50% inhibition: -: indicates absence of isolates with 50% inhibition endpoint; conditions: CLSI M38-A2
Description: as §2

[3] = system: Aspergillus fumigatus 28434; assay: MIC susceptibility testing; type: cell-based; set-up: key to MIC, 50% inhibition: -: indicates absence of isolates with 50% inhibition endpoint; conditions: CLSI M38-A2
Description: as §2

C. albicans = assay: Murine model of vulvovaginal candidiasis, efficacy; type: in vivo, BALB/c mice infected with C. albicans
Description: as §1

[4] = system: Mucor circinelloides 19445; assay: MIC susceptibility testing; type: cell-based; conditions: CLSI M38-A2
Description: as §2

Candida krusei 28570 = assay: MIC susceptibility testing; type: cell-based; conditions: CLSI M27-A3
Description: as §2

Candida albicans 28200 = assay: MIC susceptibility testing; type: cell-based; conditions: CLSI M27-A3
Description: as §2

[5] = system: Candida parapsilosis 28364; assay: MIC susceptibility testing; type: cell-based; conditions: CLSI M27-A3
Description: as §2

Candida tropicalis 28478 = assay: MIC susceptibility testing; type: cell-based; conditions: CLSI M27-A3
Description: as §2

[6] = system: Aspergillus fumigatus 28436; assay: MIC susceptibility testing; type: cell-based; conditions: CLSI M38-A2
Description: as §2

[7] = system: Trichophyton rubrum 28658; assay: MIC susceptibility testing; type: cell-based; conditions: CLSI M38-A2; 96 hours
Description: as §2

Candida auris MRL# 35651 = assay: MIC susceptibility testing; type: cell-based; conditions: CLSI M27-A3; 24 hours
Description: as §2

Candida tropicalis 28272 = assay: MIC susceptibility testing; type: cell-based; conditions: CLSI M27-A3
Description: as §2

[8] = system: Trichophyton mentagrophytes 28556; assay: MIC susceptibility testing; type: cell-based; conditions: CLSI M38-A2; 96 hours
Description: as §2

Fusarium solani 18749 = assay: MIC susceptibility testing; type: cell-based; conditions: CLSI M38-A2
Description: as §2

[9] = system: Trichophyton mentagrophytes 28641; assay: MIC susceptibility testing; type: cell-based; conditions: CLSI M38-A2; 96 hours
Description: as §2

[10] = system: Trichophyton rubrum 28659; assay: MIC susceptibility testing; type: cell-based; conditions: CLSI M38-A2; 96 hours
Description: as §2

Candida auris MRL# 35646 = assay: MIC susceptibility testing; type: cell-based; conditions: CLSI M27-A3; 24 hours
Description: as §2

Candida glabrata 28271 = assay: MIC susceptibility testing; type: cell-based; conditions: CLSI M27-A3
Description: as §2

[11] = system: Trichophyton mentagrophytes 10207; assay: MIC susceptibility testing (itraconazole-resistant strain); type: cell-based; conditions: CLSI M38-A2; 96 hours
Description: as §2

F-actin = assay: Actin polymerization and depolymerization assays; type: biochemical; conditions: 20 μg occidiofungin in 20 μL of 1.5% β-cyclodextrin in PBS, pyrene actin
[12] = intravaginal 100 and 50 µg, once per day for 3 days

occidiofungin
behavioral changes (sluggishness, stretching, reluctance to consume food) [1, 12]: No behavioral changes | vaginal bleeding or swelling [1, 12]: no vaginal bleeding or swelling was observed | signs of toxicity ([1]; treatment of murine vulvovaginal candidiasis): without any signs of toxicity | MIC, 50% inhibition ([2]; 24 hours): - | MIC, 100% inhibition ([2]; 24 hours): 4 µg/mL | MIC, 50% inhibition ([2]; 48 hours): - | MIC, 100% inhibition ([2]; 48 hours): 4 µg/mL | MIC, 50% inhibition (Fusarium oxysporum 27718; 24 hours): 2 µg/mL | MIC, 100% inhibition (Fusarium oxysporum 27718; 24 hours): 4 µg/mL | MIC, 50% inhibition (Fusarium oxysporum 27718; 48 hours): - | MIC, 100% inhibition (Fusarium oxysporum 27718; 48 hours): 4 µg/mL | MIC, 50% inhibition ([3]; 24 hours): - | MIC, 100% inhibition ([3]; 24 hours): 4 µg/mL | MIC, 50% inhibition ([3]; 48 hours): - | MIC, 100% inhibition ([3]; 48 hours): 4 µg/mL | difference between the two treated groups (C. albicans; 100 vs 50 µg, P = 0.33): no statistically significant difference between the two treated groups | reduction in fungal load (C. albicans; intravaginal 100 and 50 µg in 0.3% Noble agar, once per day for 3 days, six mice per group, vs vehicle P < 0.001): 2 -log | efficacious concentration lower than azole-based treatment (C. albicans; vs azole-based treatment methods): 10 -fold | MIC, 50% inhibition ([4]; 24 hours): 4 µg/mL | MIC, 100% inhibition ([4]; 24 hours): 8 µg/mL | MIC, 50% inhibition ([4]; 48 hours): 4 µg/mL | MIC, 100% inhibition ([4]; 48 hours): 8 µg/mL | MIC, 50% inhibition (Candida krusei 28570; 24 hours): 4 µg/mL | MIC, 100% inhibition (Candida krusei 28570; 24 hours): 8 µg/mL | MIC, 50% inhibition (Candida krusei 28570; 48 hours): 4 µg/mL | MIC, 100% inhibition (Candida krusei 28570; 48 hours): 8 µg/mL | MIC, 50% inhibition (Candida albicans 28200; 24 hours): 4 µg/mL | MIC, 100% inhibition (Candida albicans 28200; 24 hours): 8 µg/mL | MIC, 50% inhibition (Candida albicans 28200; 48 hours): 4 µg/mL | MIC, 100% inhibition (Candida albicans 28200; 48 hours): 8 µg/mL | MIC, 50% inhibition ([5]; 24 hours): 4 µg/mL | MIC, 100% inhibition ([5]; 24 hours): 8 µg/mL | MIC, 50% inhibition ([5]; 48 hours): 4 µg/mL | MIC, 100% inhibition ([5]; 48 hours): 8 µg/mL | MIC, 50% inhibition (Candida tropicalis 28478; 24 hours): 4 µg/mL | MIC, 100% inhibition (Candida tropicalis 28478; 24 hours): 8 µg/mL | MIC, 50% inhibition (Candida tropicalis 28478; 48 hours): 4 µg/mL | MIC, 100% inhibition (Candida tropicalis 28478; 48 hours): 8 µg/mL | MIC, 50% inhibition ([6]; 24 hours): 2 µg/mL | MIC, 100% inhibition ([6]; 24 hours): 4 µg/mL | MIC, 50% inhibition ([6]; 48 hours): 2 µg/mL | MIC, 100% inhibition ([6]; 48 hours): 4 µg/mL | MIC, 80% inhibition [7]: 1 µg/mL | MIC, 100% inhibition [7]: 2 µg/mL | MIC, 50% inhibition (Candida auris MRL# 35651): 0.125 µg/mL | MIC, 100% inhibition (Candida auris MRL# 35651): 0.25 µg/mL | MIC, 50% inhibition (Candida tropicalis 28272; 24 hours): 4 µg/mL | MIC, 100% inhibition (Candida tropicalis 28272; 24 hours): 8 µg/mL | MIC, 50% inhibition (Candida tropicalis 28272; 48 hours): 4 µg/mL | MIC, 100% inhibition (Candida tropicalis 28272; 48 hours): 8 µg/mL | MIC, 80% inhibition [8]: 1 µg/mL | MIC, 100% inhibition [8]: 2 µg/mL | MIC, 50% inhibition (Fusarium solani 18749; 24 hours): 2 µg/mL | MIC, 100% inhibition (Fusarium solani 18749; 24 hours): 4 µg/mL | MIC, 50% inhibition (Fusarium solani 18749; 48 hours): 2 µg/mL | MIC, 100% inhibition (Fusarium solani 18749; 48 hours): 4 µg/mL | MIC, 80% inhibition [9]: 1 µg/mL | MIC, 100% inhibition [9]: 2 µg/mL | MIC, 80% inhibition [10]: 1 µg/mL | MIC, 100% inhibition [10]: 2 µg/mL | MIC, 50% inhibition (Candida auris MRL# 35646): 0.125 µg/mL | MIC, 100% inhibition (Candida auris MRL# 35646): 0.25 µg/mL | MIC, 50% inhibition (Candida glabrata 28271; 24 hours): 4 µg/mL | MIC, 100% inhibition (Candida glabrata 28271; 24 hours): 8 µg/mL | MIC, 50% inhibition (Candida glabrata 28271; 48 hours): 4 µg/mL | MIC, 100% inhibition (Candida glabrata 28271; 48 hours): 8 µg/mL | MIC, 80% inhibition [11]: 1 µg/mL | MIC, 100% inhibition [11]: 2 µg/mL | effect on polymerization or depolymerization of F-actin (F-actin): no effect on the polymerization or depolymerization properties of F-actin
